Tests used:
SCD5 = target: T1, SCD5 (Homo sapiens, UniProt Q86SK9); assay: Growth inhibition of humanized yeast strain expressing SCD5 as sole desaturase; type: cell-based
T1 construct: host or cells: S. cerevisiae ole1Δ strain (W303 pdr1Δ pdr3Δ background), plasmid pRS316 with TDH3 promoter and CYC1 terminator
T1 sequence (Q86SK9 1-330): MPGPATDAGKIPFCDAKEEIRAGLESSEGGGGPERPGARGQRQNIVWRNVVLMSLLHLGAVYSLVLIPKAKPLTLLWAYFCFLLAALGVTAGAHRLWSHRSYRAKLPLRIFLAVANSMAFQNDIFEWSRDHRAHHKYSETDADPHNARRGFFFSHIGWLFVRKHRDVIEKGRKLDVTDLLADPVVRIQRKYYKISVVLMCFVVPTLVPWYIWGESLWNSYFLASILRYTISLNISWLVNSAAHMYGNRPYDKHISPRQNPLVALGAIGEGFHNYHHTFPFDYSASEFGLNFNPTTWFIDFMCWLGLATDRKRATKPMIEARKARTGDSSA
How it was run: (§1)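 ole1Δ yeast (W303 pdr1Δ pdr3Δ background) carrying plasmid-borne Ole1, SCD1 or SCD5, grown in uracil-free media; cultures pre-grown in raffinose, seeded at 2× density 0.02 in galactose media with compound. Growth read as OD600 after 24 h at 30° C. for Ole1, 40 h for SCD1/SCD5.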

SCD1 = target: T2, SCD1 (Homo sapiens, UniProt O00767); assay: Growth inhibition of humanized yeast strain expressing SCD1 as sole desaturase; type: cell-based
T2 construct: host or cells: S. cerevisiae ole1Δ strain (W303 pdr1Δ pdr3Δ background), plasmid pRS316 with TDH3 promoter and CYC1 terminator
T2 sequence (O00767 1-359): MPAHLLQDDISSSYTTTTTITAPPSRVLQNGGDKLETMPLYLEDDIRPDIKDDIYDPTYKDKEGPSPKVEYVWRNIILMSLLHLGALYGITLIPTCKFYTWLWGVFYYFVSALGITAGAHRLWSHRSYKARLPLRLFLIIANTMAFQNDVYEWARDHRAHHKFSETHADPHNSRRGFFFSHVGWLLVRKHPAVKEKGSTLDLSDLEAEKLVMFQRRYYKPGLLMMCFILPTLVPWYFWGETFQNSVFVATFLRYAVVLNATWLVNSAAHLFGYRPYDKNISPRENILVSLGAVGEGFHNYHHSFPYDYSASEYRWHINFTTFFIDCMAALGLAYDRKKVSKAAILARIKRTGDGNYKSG
How it was run: as §1

[1] = growth inhibition of humanized yeast strain expressing human SCD5
[2] = growth inhibition of humanized yeast strain expressing human SCD1
[3] = humanized yeast strain expressing SCD5
[4] = humanized yeast strain expressing SCD1

Row | SMILES | IC50 (SCD5; humanized yeast strain, 40 h) | IC50 (SCD1; humanized yeast strain, 40 h) | further results
1 | COC(=O)N1CCN(c2noc(-c3ccc4cnn(C5CS(=O)(=O)C5)c4c3)n2)CC1 [Compound 998] | 4.13 µM | > 45 µM | –
2 | CC(C)(C)OC(=O)N1C[C@@H]2[C@H](C1)[C@H]2C(=O)NCc1ccc(C#N)cc1 [Compound 770] | > 45 µM | > 45 µM | –
3 | COC(=O)N1CCC(c2noc(-c3ccc4cnn(C(CO)CO)c4c3)n2)CC1 [Compound 834] | > 45 µM | > 45 µM | –
4 | CC(C)n1nc(CCS(C)(=O)=O)c2ccc(-c3noc(C4CCN(C(=O)OC(C)(C)C)CC4)n3)cc21 [Compound 766] | > 45 µM | > 45 µM | –
5 | C[C@H]1C[C@H](c2noc(-c3ccc4cnn(C5COC5)c4c3)n2)CCN1C(=O)C1(F)CC1 [Compound 1053] | 0.00118 µM | > 45 µM | –
6 | CC(C)(C)OC(=O)N1CCC(c2nc(-c3ccc4cnn([C@@H]5CCOC5)c4c3)no2)CC1 [Compound 792] | 0.01 µM | 8.83 µM | –
7 | CC(C)(C)OC(=O)N1C[C@@H]2[C@H](C1)[C@H]2C(=O)NCc1ccncc1 [Compound 768] | > 45 µM | > 45 µM | –
8 | CC(C)(C)OC(=O)N1CCC(c2nc(-c3cccc(C(=O)N4CCC4)c3)no2)CC1 [Compound 741] | – | – | IC50 (SCD5; [1]): 7.76 µM; IC50 (SCD1; [2]): > 45 µM
9 | CC(C)n1ncc2ccc(-c3nc(C4CCN(C(=O)c5ncccc5Cl)CC4)no3)cc21 [Compound 692] | – | – | IC50 (SCD5; [1]): 0.492 µM; IC50 (SCD1; [2]): > 45 µM
10 | CC(C)C(=O)N1CCC(c2noc(-c3cccc(N4CCOCC4)c3F)n2)CC1 [Compound 1160] | > 45 µM | > 45 µM | –
11 | CC(C)(C)OC(=O)N1C[C@@H]2[C@H](C1)[C@H]2C(=O)NCc1ccccc1 [Compound 771] | > 45 µM | > 45 µM | –
12 | O=C(c1ccccc1F)N1CCN(c2noc(-c3ccc4cnn(C5COC5)c4c3)n2)CC1 [Compound 725] | – | – | IC50 (SCD5; [1]): 0.011 µM; IC50 (SCD1; [2]): 5.99 µM
13 | CC(C)(C)OC(=O)N1CCC(c2nc(-c3ccc4cnn([C@H]5C[C@@H](O)C5)c4c3)no2)CC1 [Compound 822] | 0.111 µM | > 45 µM | –
14 | CC(C)(C)OC(=O)N1CCC(c2noc(-c3ccc4cnn(C5CS(=O)(=O)C5)c4c3)n2)CC1 [Compound 990] | 0.01 µM | > 45 µM | –
15 | Cc1nn(C)c2cc(-c3noc(C4CCN(C(=O)CC5CNC5)CC4)n3)ccc12 [Compound 680] | – | – | IC50 (SCD5; [1]): > 45 µM; IC50 (SCD1; [2]): > 45 µM
16 | O=C(C1CC2(CC2)C1)N1CCN(c2nnc(-c3ccc4cnn(C5COC5)c4c3)o2)CC1 [Compound 993] | 3.81 µM | > 45 µM | –
17 | CC(C)(C)OC(=O)N1CCC(c2noc(-c3cccc([C@H]4CCOC4)c3)n2)CC1 [Compound 789] | 0.01 µM | > 45 µM | –
18 | O=C(C1CC1)N1CCC(c2noc(-c3cc(F)c4cnn(C5COC5)c4c3)n2)CC1 [Compound 1067] | 0.00498 µM | > 45 µM | –
19 | O=C(OC1CC1)N1CCC(c2noc(-c3cc(F)c4cnn(C5COC5)c4c3)n2)CC1 [Compound 1071] | 0.00303 µM | > 45 µM | –
20 | Cc1nn(C)c2cc(-c3noc([C@H]4CC[C@H](O)CC4)n3)ccc12 [Compound 526] | – | – | IC50 (SCD5; [3]): > 45 µM; IC50 (SCD1; [4]): > 45 µM
21 | O=C(OC1CC1)N1CCN(c2nc(-c3ccc4cnn(C5COC5)c4c3)no2)CC1 [Compound 642] | – | – | IC50 (SCD5; [1]): 0.211 µM; IC50 (SCD1; [2]): > 45 µM
22 | CC(=O)N1CC(n2ncc3ccc(-c4noc(N5CCN(C(=O)OC(C)(C)C)CC5)n4)cc32)C1 [Compound 897] | 0.06 µM | > 45 µM | –
23 | CC(C)(C)OC(=O)N1CCC(F)(c2noc(-c3ccc4cnn(C5COC5)c4c3)n2)CC1 [Compound 883] | 1 µM | > 45 µM | –
24 | COC1(C(=O)N2CCN(c3noc(-c4ccc5cnn(C(C)C)c5c4)n3)CC2)CC1 [Compound 889] | 1.9 µM | 13.3 µM | –

Row | SMILES | IC50 (SCD5; humanized yeast strain, 40 h) | IC50 (SCD1; humanized yeast strain, 40 h) | further results
25 | COc1cc(-c2nc(C3CCN(C(=O)OC(C)(C)C)CC3)no2)cc2c1cnn2C1COC1 [Compound 1076] | 1.03 µM | > 45 µM | –
26 | CC(C)N1C(=O)Cc2ccc(-c3noc(C4CCN(C(=O)CC(C)(C)C)CC4)n3)cc21 [Compound 611] | – | – | IC50 (SCD5; [1]): 7.48 µM; IC50 (SCD1; [2]): > 45 µM
27 | CC(C)(C)OC(=O)N1CCC(c2noc(-c3ccc(F)c(N4CCOCC4)c3)n2)CC1 [Compound 1149] | 0.01 µM | > 45 µM | –
28 | COC(=O)N1CCN(c2nc(-c3ccc4cnn(C(C)C)c4c3)no2)CC1 [Compound 356] | – | – | IC50 (SCD5; [3]): > 45 µM; SCD5 % Max Inhibition (SCD5; [3]): 2.88%; SCD1 % Max Inhibition (SCD1; [4]): 51.18%
29 | CC(C)(C)OC(=O)N1CCC(c2nc(-c3ccc4cnc(C#N)n4c3)no2)CC1 [Compound 942] | 9.16 µM | > 45 µM | –
30 | Clc1cnc2n1CCN(c1noc(-c3ccc4cnn(C5CCC5)c4c3)n1)C2 [Compound 905] | > 45 µM | > 45 µM | –
31 | C=C(C)c1ncn2ccc(-c3noc(C4CCN(C(=O)OC(C)(C)C)CC4)n3)cc12 [Compound 855] | > 45 µM | > 45 µM | –
32 | Cc1nn(C)c2cc(-c3noc(C4CCN(C(=O)OC(C)(C)C)CC4(F)F)n3)ccc12 (centres unmarked) [Compound 504] | – | – | IC50 (SCD5; [3]): 14.8 µM; IC50 (SCD1; [4]): > 45 µM
33 | CC(CF)n1ncc2ccc(-c3noc(C4CCN(C(=O)OC5(C)CC5)CC4)n3)cc21 (centres unmarked) [Compound 607] | – | – | IC50 (SCD5; [1]): 0.511 µM; IC50 (SCD1; [2]): > 45 µM
34 | CC(C)n1ncc2ccc(-c3noc(C4CCN(C(=O)OC(C)(C)C)C=C4F)n3)cc21 (centres unmarked) [Compound 509] | – | – | IC50 (SCD5; [3]): > 45 µM; IC50 (SCD1; [4]): > 45 µM
35 | CC1(CC(=O)N2CCN(c3nc(-c4ccc5cnn(C6COC6)c5c4)no3)CC2)CC1 [Compound 693] | – | – | IC50 (SCD5; [1]): 1.67 µM; IC50 (SCD1; [2]): > 45 µM
36 | CC(C)n1ncc2ccc(-c3nc(N4CCNCC4)no3)cc21 [Compound 798] | > 45 µM | > 45 µM | –
37 | CC(C)(C)OC(=O)N1CCC(c2nsc(-c3ccc4cnn(C5COC5)c4c3)n2)CC1 [Compound 780] | 0.027 µM | > 45 µM | –
38 | O=C(CC1CC1)N1CCC(c2noc(-c3ccnc(C4CCOC4)c3)n2)CC1 (centres unmarked) [Compound 1100] | 0.738 µM | > 45 µM | –
39 | Cc1nn(C)c2cc(-c3noc(C4CCN(C(=O)CN)CC4(F)F)n3)ccc12 (centres unmarked) [Compound 512] | – | – | IC50 (SCD5; [3]): > 45 µM; IC50 (SCD1; [4]): > 45 µM
40 | CC(C)n1ncc2ccc(-c3noc(C4CCN(C(=O)CNC(=O)c5ccc(C#N)cc5)CC4(F)F)n3)cc21 (centres unmarked) [Compound 552] | – | – | IC50 (SCD5; [3]): > 45 µM; IC50 (SCD1; [4]): > 45 µM
41 | CC(C)n1ncc2ccc(-c3nc(C4CCNC4)no3)cc21 (centres unmarked) [Compound 531] | – | – | IC50 (SCD5; [3]): > 45 µM; IC50 (SCD1; [4]): > 45 µM
42 | Cc1nn(C)c2cc(-c3nc(C4CCN(C(=O)C5CC5)CC4)no3)ccc12 [Compound 920] | 0.1 µM | 11.7 µM | –
43 | CC(=O)N1CC(n2cc3ccc(-c4noc(N5CCN(C(=O)OC(C)(C)C)CC5)n4)cc3n2)C1 [Compound 898] | 0.07 µM | > 45 µM | –
44 | CC1(OC(=O)N2CCC(c3nc(-c4cccc(C5CCOC5)c4)no3)CC2)CC1 (centres unmarked) [Compound 846] | 0.04 µM | > 45 µM | –
45 | CC(C)n1nc(CCN)c2ccc(-c3noc(C4CCN(C(=O)OC(C)(C)C)CC4)n3)cc21 [Compound 761] | > 45 µM | > 45 µM | –
46 | CC(=O)N1CC(n2cc3ccc(-c4noc(C5CCN(C(=O)OC(C)(C)C)CC5)n4)cc3n2)C1 [Compound 711] | – | – | IC50 (SCD5; [1]): > 45 µM; IC50 (SCD1; [2]): > 45 µM
47 | CC1(OC(=O)N2CCC(c3noc(-c4ccnc(NC5COC5)c4)n3)CC2)CC1 [Compound 1151] | 1.09 µM | > 45 µM | –
